B1: GBS hyaluronidase: purified hyaluronidase from Group B Streptococcus (S. agalactiae) that degrades HA to a disaccharide (protein, UniProt Q53591 41-984, looked up)
Hyaluronate lyase: WIDKENTADKSPIIQRTEQGQVSLSSDKGFRGAVTQKVNIDPTKKYEVKFDIETSNKAGQAFLRIMEKKDNNTRLWLSEMTSGTTNKHTLTKIYNPKLNVSEVTLELYYEKGTGSATFDNISMKAKGPKDSEHPQPVTTQIEESVNTALNKNYVFNKADYQYTLTNPSLGKIVGGILYPNATGSTTVKISDKSGKIIKEVPLSVTASTEDKFTKLLDKWNDVTIGNHVYDTNDSNMQKINQKLDETNAKNIKTIKLDSNHTFLWKDLDNLNNSAQLTATYRRLEDLAKQITNPHSTIYKNEKAIRTVKESLAWLHQNFYNVNKDIEGSANWWDFEIGVPRSITATLALMNNYFTDAEIKTYTDPIEHFVPDAGYFRKTLDNPFKALGGNLVDMGRVKIIEGLLRKDNTIIEKTSHSLKNLFTTATKAEGFYADGSYIDHTNVAYTGAYGNVLIDGLTQLLPIIQETDYKISNQELDMVYKWINQSFLPLIVKGELMDMSRGRSISREAASSHAAAVEVLRGFLRLANMSNEERNLDLKSTIKTIITSNKFYNVFNNLKSYSDIANMNKMLNDSTVATKPLKSNLSTFNSMDRLAYYNAEKDFGFALSLHSKRTLNYEGMNDENTRDWYTGDGMFYLYNSDQSHYSNHFWPTVNPYKMAGTTEKDAKREDTTKEFMSKHSKDAKEKTGQVTGTSDFVGSVKLNDHFALAAMDFTNWDRTLTAQKGWVILNDKIVFLGSNIKNTNGIGNVSTTIDQRKDDSKTPYTTYVNGKTIDLKQASSQQFTDTKSVFLESKEPGRNIGYIFFKNSTIDIERKEQTGTWNSINRTSKNTSIVSNPFITISQKHDNKGDSYGYMMVPNIDRTSFDKLANSKEVELLENSSKQQVIYDKNSQTWAVIKHDNQESLINNQFKMNKAGLYLVQKVGNDYQNVYYQPQTMTKTDQLAI

Legend:
[1] = system: acute lung injury; test: LPS acute lung injury, intratracheal; type: in vivo; conditions: mice, 5 micrograms LPS intratracheally, 100 micrograms disaccharide, 24 h; FIG. 14
Method: FIG. 14 depicts, in accordance with an embodiment of the invention, HA disaccharide decreases acute lung injury. Mice were injected intratracheally with 5 micrograms of LPS, along with PBS, Hyaluronan disaccharide (100 micrograms) or GBS enzyme (1 mg). At 24 h, the mice were sacrificed and the lungs were analyzed for histology (F&G) and cytokines and chemokines (A-E).

[2] = system: bone marrow derived macrophages; test: macrophage stimulation assay, LPS or undigested hyaluronan with hyaluronan disaccharide; type: cell-based, mice
Method: FIG. 6 depicts, in accordance with an embodiment of the invention, hyaluronan disaccharide has an anti-inflammatory property. Hyaluronan disaccharide was co-incubated with LPS or undigested hyaluronan in a macrophage stimulation assay. Hyaluronan disaccharide reduces TNF-α induction by LPS or undigested hyaluronan.
FIG. 11 depicts, in accordance with an embodiment of the invention, hyaluronan dimers are not inert. Bone marrow derived macrophages from WT mice were incubated with LPS and various concentrations of hyaluronan disaccharide. TNF-α at 18 h was measured.

[3] = system: TLR2; test: TLR2 reporter construct in HEK cells; type: cell-based; conditions: TLR2 agonist Pam3, FIG. 12A
Method: (§1) FIG. 12 depicts, in accordance with an embodiment of the invention, HA disaccharide reduces TLR 2 and 4 (A), but not TLR9 (B) signaling. HEK cells were transfected with TLR2, 4, and 9 reporter constructs. The cells were incubated with TLR2 agonist (Pam3), TL4 agonist (LPS), or TLR9 agonist (Cpg) with or without hyaluronan disaccharide. Activation of the reporter genes at 4 h was measured.

[4] = system: TLR4; test: TLR4 reporter construct in HEK cells; type: cell-based; conditions: TLR4 agonist LPS, FIG. 12A
Method: as §1

[5] = system: macrophage; test: macrophage stimulation assay, Pam3csk4 induced TNF-α secretion; type: cell-based; conditions: FIG. 3C; for Pam3csk4 induced TNF-α secretion: TLR2 agonist Pam3csk4
Excerpt: (§2) FIG. 3 depicts, in accordance with an embodiment of the invention, in vitro anti-inflammatory properties of GBS hyaluronidase. A. Bio-Gel P-4 chromatography of hyaluronidase digestion mixture following digestion with GBS, bovine testis, or Streptomyces hyaluronlyticus hyaluronidase. B. Digestion of HA by GBS hyaluronidase leads to suppressed inflammation. C. HA disaccharide inhibits Pam3csk4 induced TNFα secretion.
(§3) Since bovine hyaluronidase degrades HA to 4-16mers, the inventors asked whether subsequent degradation with GBS hyaluronidase would abrogate induction of TNF-α. Indeed that is what the inventors found (FIG. 3B right). Because the major product of GBS hyaluronidase enzymatic activity is diHA (disaccharide), the inventors also evaluated the direct effect of DiHA on TNF-α secretion induced by a TLR2 agonist Pam3csk4.

[6] = system: TLR9; test: TLR9 reporter construct in HEK cells; type: cell-based; conditions: TLR9 agonist Cpg, FIG. 12B
Method: as §1

[7] = system: bone marrow derived macrophages; test: hyaluronan predigested with GBS hyaluronidase, then stimulation of macrophages; type: cell-based
Excerpt: FIG. 7 depicts, in accordance with an embodiment of the invention, Group B streptococcal hyaluronidase has an anti-inflammatory property. Hyaluronan was predigested with purified GBS hyaluronidase or PBS, and then transferred to a culture of bone marrow derived macrophages.
(§4) FIG. 8 depicts, in accordance with an embodiment of the invention, GBS hyaluronidase reduces hyaluronan to dimers and dampens inflammation. HPLC profile of hyaluronan fragments generated by bovine hyaluronidase versus Group B streptococcus (GBS) hyaluronidase (A). Stimulatory hyaluronan fragments (4-16mers) were digested with GBS hyaluronidase for 4 or 15 hours (B).
as §3

[8] = hyaluronidase digestion of HA, fragment sizes (Bio-Gel P-4 chromatography / HPLC); type: biochemical; conditions: FIG. 3A
Excerpt: as §2, §4, §3

Molecule	acute lung injury [1]	TNF-α at 18 h with LPS and various concentrations of hyaluronan disaccharide ([2]; bone marrow derived macrophages from WT mice, FIG. 11)	TNF-α induction by LPS ([2]; co-incubated with LPS, FIG. 6)	TNF-α induction by undigested hyaluronan ([2]; co-incubated with undigested hyaluronan, FIG. 6)	TLR2 signaling (reporter gene activation at 4 h) [3]	TLR4 signaling (reporter gene activation at 4 h) [4]	immunostimulatory capacity [5]	Pam3csk4 induced TNF-α secretion ([5]; listed as HA disaccharide)	Pam3csk4 induced TNF-α secretion ([5]; listed as diHA)	TLR9 signaling (reporter gene activation at 4 h) [6]	TNF-α stimulation by hyaluronan ([7]; hyaluronan predigested with purified GBS hyaluronidase or PBS, FIG. 7)	cytokine production ([7]; stimulatory hyaluronan fragments (4-16mers) digested for 4 or 15 hours, FIG. 8B)	induction of TNF-α by HA degraded with bovine hyaluronidase ([7]; subsequent degradation with GBS hyaluronidase, FIG. 3B right)	HA degradation product (fragment size) [8]
hyaluronan disaccharide	decreases	not inert	reduces	reduces	reduces	reduces	no immunostimulatory capacity	inhibits	partially inhibited	not	–	–	–	–
B1	–	–	–	–	–	–	–	–	–	–	significantly reduces	reduces cytokine production	abrogate	a single product—a disaccharide

From patent publication US9763969B2, “Treatment of inflammatory conditions with hyaluronan disaccharide” (CEDARS-SINAI MEDICAL CENTER, priority 2013, dated 2017)
